Measurements: ChEMBL document CHEMBL5465560, “Selectivity Literature for EUbOPEN Chemogenomic Library” (2024)

How the values were obtained:
[1] = target: T1, Interleukin-1 receptor-associated kinase 4 (Homo sapiens) (UniProt Q9NWZ3); assay: Selectivity interaction (KinomeScan (DiscoverX)) EUB0001550a IRAK4; conditions: at 1 µM
T1 sequence (whole entry): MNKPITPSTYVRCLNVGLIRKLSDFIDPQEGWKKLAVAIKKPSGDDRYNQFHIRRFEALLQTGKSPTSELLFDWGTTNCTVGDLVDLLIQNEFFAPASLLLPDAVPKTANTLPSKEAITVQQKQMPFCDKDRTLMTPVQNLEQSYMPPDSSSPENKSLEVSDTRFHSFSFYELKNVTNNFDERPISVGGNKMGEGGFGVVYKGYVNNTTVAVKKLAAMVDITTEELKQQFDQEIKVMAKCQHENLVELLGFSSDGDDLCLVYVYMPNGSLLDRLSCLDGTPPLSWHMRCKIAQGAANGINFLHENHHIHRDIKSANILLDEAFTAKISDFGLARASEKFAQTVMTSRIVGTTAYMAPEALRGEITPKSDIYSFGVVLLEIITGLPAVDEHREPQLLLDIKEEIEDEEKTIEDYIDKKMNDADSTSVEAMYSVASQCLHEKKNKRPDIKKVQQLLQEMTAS

[2] = target: Receptor tyrosine-protein kinase erbB-3 (Homo sapiens) (UniProt P21860); assay: Selectivity interaction (KinomeScan (DiscoverX)) EUB0001079a ERBB3; conditions: at 1 µM
Receptor tyrosine-protein kinase erbB-3 (Homo sapiens), sequence (P21860 whole entry): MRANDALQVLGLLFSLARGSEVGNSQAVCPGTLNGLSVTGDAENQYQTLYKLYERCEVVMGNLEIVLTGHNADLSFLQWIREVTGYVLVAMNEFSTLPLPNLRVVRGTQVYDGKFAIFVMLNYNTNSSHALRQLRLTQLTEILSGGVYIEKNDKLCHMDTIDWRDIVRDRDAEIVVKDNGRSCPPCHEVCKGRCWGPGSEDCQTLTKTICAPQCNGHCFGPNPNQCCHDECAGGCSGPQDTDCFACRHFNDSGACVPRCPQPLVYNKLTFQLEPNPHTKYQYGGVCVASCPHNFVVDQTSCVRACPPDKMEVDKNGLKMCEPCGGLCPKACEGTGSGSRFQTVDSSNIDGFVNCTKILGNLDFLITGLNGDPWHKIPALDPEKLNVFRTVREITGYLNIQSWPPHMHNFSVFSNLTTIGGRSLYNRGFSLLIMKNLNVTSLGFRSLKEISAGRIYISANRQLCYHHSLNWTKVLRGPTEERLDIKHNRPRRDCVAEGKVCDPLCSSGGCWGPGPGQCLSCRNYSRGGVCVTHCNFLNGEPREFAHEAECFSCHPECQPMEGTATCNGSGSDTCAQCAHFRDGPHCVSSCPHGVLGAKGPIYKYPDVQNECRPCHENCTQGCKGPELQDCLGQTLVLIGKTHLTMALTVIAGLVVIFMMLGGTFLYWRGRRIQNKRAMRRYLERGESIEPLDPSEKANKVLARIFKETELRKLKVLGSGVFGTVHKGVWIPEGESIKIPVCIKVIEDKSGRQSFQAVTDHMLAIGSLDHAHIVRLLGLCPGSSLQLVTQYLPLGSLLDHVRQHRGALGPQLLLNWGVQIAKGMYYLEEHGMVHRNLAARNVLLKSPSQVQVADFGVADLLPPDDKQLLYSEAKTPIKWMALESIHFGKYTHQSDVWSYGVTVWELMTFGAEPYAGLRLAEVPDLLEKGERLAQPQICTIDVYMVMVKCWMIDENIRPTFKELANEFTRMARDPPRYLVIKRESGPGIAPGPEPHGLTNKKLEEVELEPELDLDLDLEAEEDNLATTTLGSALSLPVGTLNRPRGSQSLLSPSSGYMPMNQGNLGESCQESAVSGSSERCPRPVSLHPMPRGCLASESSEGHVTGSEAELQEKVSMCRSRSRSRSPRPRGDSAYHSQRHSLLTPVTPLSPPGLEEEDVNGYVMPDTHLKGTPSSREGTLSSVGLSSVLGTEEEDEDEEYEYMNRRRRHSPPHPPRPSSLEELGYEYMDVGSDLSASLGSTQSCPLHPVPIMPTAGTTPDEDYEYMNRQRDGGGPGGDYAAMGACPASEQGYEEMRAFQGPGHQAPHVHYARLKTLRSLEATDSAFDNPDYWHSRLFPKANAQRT

[3] = target: T2, Protein kinase C epsilon type (Homo sapiens) (UniProt Q02156); assay: Selectivity interaction (Kinase panel (Z-LYTE Assay)) EUB0001632a PRKCE; conditions: at 10 µM
T2 sequence (whole entry): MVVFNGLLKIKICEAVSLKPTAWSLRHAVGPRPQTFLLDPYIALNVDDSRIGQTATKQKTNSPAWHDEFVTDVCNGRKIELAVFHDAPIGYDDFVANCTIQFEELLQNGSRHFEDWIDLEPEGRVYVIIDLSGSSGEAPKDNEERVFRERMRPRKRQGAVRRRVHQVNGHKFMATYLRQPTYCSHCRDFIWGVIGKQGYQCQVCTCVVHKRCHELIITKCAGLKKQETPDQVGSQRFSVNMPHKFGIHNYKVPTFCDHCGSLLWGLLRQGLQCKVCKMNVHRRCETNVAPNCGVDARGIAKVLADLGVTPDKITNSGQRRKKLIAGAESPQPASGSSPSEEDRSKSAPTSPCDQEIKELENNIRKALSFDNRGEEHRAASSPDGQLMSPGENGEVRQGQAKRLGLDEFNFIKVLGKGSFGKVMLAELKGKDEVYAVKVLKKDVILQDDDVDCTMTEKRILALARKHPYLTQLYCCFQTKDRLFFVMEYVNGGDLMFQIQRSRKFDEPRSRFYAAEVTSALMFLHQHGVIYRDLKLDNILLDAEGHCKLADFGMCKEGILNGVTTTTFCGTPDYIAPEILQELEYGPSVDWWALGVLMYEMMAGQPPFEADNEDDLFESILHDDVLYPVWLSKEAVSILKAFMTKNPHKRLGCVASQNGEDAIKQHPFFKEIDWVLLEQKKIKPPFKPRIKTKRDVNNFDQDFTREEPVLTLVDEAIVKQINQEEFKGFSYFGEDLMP

[4] = target: Polycomb protein EED (Homo sapiens) (UniProt O75530); assay: Selectivity interaction (PWWP, WD40, and Tudor domain panel (DSLS measurements, literature)) EUB0000270b EED
[5] = target: eIF-2-alpha kinase GCN2 (Homo sapiens) (UniProt Q9P2K8); assay: Selectivity interaction (ActivX KiNativ screen (kinase selectivity in THP-1 cell lysates)) EUB0000639a EIF2AK4; format: subcellular; conditions: lysate, at 1 µM
eIF-2-alpha kinase GCN2 (Homo sapiens), sequence (Q9P2K8 whole entry): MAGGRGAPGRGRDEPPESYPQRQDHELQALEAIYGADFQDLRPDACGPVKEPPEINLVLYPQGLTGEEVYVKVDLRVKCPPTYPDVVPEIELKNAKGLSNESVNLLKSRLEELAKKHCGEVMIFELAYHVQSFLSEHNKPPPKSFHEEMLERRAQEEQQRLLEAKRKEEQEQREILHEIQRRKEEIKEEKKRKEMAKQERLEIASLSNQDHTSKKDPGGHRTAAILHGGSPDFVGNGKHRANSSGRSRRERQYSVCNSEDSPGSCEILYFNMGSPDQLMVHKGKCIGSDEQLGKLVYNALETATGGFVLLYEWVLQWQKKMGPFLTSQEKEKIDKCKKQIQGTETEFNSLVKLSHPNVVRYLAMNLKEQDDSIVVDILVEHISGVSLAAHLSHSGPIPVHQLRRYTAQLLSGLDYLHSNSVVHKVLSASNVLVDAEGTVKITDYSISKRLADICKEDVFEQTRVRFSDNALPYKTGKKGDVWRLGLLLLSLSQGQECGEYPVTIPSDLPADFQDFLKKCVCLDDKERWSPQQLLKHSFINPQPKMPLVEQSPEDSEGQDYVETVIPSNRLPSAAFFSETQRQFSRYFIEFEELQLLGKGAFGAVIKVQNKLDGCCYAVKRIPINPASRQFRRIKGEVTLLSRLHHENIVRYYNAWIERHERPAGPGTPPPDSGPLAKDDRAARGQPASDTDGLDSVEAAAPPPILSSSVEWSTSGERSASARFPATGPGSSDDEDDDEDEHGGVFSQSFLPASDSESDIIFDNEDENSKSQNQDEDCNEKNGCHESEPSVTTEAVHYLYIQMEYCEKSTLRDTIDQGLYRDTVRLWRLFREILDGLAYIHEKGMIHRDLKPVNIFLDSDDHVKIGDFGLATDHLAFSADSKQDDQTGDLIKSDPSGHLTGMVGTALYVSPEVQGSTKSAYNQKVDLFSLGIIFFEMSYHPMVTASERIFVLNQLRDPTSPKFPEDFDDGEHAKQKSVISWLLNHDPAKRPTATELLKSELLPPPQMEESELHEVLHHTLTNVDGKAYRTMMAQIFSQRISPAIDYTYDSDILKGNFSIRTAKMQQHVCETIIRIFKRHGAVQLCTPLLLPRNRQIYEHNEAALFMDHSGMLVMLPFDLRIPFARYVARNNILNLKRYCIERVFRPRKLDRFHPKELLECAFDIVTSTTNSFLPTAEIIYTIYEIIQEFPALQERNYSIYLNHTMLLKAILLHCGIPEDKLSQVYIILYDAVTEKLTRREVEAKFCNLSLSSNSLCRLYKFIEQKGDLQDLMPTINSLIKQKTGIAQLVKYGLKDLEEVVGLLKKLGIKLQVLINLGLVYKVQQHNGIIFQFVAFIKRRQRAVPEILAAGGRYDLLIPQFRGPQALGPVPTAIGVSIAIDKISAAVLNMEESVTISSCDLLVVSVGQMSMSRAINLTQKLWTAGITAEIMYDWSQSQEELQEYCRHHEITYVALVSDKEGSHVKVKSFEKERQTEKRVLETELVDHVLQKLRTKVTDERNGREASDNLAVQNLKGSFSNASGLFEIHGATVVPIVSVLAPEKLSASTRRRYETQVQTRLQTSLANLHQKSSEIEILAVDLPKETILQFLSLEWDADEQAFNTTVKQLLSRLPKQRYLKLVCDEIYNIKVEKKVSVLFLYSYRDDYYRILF

[6] = target: Ribosomal protein S6 kinase alpha-1 (Homo sapiens, UniProt Q15418); assay: Selectivity interaction (ActivX KiNativ screen (kinase selectivity in THP-1 cell lysates)) EUB0000639a RPS6KA1; format: subcellular; conditions: lysate, at 1 µM
[7] = target: Tyrosine-protein kinase HCK (Homo sapiens) (UniProt P08631); assay: Selectivity interaction (ActivX KiNativ screen (kinase selectivity in THP-1 cell lysates)) EUB0000639a HCK; format: subcellular; conditions: lysate, at 1 µM
[8] = target: Serine/threonine-protein kinase VRK2 (Homo sapiens) (UniProt Q86Y07); assay: Selectivity interaction (KinomeScan (DiscoverX)) EUB0000607a VRK2; conditions: at 10 µM
[9] = target: Serine/threonine-protein kinase Nek6 (Homo sapiens) (UniProt Q9HC98); assay: Selectivity interaction (SelectScreen profiling (Invitrogen)) EUB0000607a NEK6; conditions: at 2 µM
Serine/threonine-protein kinase Nek6 (Homo sapiens), sequence (Q9HC98 whole entry): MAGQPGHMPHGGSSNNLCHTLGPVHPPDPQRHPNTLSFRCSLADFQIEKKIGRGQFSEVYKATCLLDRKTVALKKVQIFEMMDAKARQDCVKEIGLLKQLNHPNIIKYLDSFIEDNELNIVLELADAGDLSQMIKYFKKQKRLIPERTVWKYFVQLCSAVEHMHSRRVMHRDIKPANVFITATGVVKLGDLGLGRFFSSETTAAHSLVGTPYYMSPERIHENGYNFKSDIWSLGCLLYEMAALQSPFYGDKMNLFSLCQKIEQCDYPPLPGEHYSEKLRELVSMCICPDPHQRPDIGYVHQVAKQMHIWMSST

[10] = target: Mitogen-activated protein kinase 3 (Homo sapiens, UniProt P27361); assay: Selectivity interaction (KinomeScan (DiscoverX)) EUB0001049a MAPK3; conditions: at 1 µM
[11] = target: Dual specificity protein kinase CLK3 (Homo sapiens, UniProt P49761); assay: Selectivity interaction (KinomeScan (DiscoverX)) EUB0000045b CLK3
Dual specificity protein kinase CLK3, sequence (P49761 whole entry, looked up): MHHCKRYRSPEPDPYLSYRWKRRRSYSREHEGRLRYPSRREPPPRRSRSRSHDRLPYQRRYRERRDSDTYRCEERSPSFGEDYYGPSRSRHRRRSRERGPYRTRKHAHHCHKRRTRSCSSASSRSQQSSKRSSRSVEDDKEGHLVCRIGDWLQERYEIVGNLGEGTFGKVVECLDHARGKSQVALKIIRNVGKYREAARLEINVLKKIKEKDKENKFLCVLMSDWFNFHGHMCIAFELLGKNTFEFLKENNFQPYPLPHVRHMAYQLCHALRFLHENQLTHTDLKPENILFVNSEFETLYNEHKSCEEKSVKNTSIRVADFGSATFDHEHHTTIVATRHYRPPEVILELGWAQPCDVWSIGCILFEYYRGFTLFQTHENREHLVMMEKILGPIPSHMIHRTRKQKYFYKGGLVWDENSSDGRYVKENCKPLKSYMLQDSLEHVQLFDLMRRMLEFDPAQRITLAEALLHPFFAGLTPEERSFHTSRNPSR

[12] = target: Serine/threonine-protein kinase 33 (Homo sapiens) (UniProt Q9BYT3); assay: Selectivity interaction (KinomeScan (DiscoverX)) EUB0000045b STK33
Serine/threonine-protein kinase 33 (Homo sapiens), sequence (Q9BYT3 whole entry, looked up): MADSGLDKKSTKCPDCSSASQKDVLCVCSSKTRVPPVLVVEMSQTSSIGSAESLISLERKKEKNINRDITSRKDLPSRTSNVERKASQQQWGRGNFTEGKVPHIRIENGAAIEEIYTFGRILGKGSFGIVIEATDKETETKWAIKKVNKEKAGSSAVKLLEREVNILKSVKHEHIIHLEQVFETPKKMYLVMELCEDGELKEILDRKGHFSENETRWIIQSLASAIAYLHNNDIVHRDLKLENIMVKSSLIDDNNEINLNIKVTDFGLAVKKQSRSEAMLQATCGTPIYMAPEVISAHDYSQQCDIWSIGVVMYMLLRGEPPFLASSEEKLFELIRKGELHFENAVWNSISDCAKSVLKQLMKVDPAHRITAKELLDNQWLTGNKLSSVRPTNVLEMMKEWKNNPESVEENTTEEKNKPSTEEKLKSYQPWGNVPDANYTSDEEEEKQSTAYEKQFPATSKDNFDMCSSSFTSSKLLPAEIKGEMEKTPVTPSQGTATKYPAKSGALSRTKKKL

[13] = target: MAP/microtubule affinity-regulating kinase 3 (Homo sapiens) (UniProt P27448); assay: Selectivity interaction (KinomeScan (DiscoverX)) EUB0000045b MARK3
MAP/microtubule affinity-regulating kinase 3 (Homo sapiens), sequence (P27448 whole entry, looked up): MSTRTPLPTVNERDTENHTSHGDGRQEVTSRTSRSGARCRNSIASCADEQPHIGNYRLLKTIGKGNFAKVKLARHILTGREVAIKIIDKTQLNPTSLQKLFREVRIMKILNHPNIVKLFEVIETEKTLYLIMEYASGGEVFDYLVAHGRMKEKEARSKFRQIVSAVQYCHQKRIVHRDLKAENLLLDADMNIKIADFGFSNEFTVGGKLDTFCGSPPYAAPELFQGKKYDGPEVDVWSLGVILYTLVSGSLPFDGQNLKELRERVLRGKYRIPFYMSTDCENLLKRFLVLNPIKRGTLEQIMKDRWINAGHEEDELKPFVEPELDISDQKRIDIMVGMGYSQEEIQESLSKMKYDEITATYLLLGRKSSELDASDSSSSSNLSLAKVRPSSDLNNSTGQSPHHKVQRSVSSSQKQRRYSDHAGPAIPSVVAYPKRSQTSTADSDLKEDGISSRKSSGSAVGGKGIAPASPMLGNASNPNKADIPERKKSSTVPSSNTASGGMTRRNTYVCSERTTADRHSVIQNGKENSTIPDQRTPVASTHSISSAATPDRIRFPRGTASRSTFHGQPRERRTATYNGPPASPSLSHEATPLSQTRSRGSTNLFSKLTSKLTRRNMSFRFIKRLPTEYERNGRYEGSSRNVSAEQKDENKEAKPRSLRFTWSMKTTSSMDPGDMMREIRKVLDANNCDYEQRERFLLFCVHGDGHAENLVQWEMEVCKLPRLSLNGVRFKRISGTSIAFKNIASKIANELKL

[14] = target: T3, SNF-related serine/threonine-protein kinase (Homo sapiens) (UniProt Q9NRH2); assay: Selectivity interaction (KinomeScan (DiscoverX)) EUB0001619a SNRK; conditions: at 1 µM
T3 sequence (whole entry): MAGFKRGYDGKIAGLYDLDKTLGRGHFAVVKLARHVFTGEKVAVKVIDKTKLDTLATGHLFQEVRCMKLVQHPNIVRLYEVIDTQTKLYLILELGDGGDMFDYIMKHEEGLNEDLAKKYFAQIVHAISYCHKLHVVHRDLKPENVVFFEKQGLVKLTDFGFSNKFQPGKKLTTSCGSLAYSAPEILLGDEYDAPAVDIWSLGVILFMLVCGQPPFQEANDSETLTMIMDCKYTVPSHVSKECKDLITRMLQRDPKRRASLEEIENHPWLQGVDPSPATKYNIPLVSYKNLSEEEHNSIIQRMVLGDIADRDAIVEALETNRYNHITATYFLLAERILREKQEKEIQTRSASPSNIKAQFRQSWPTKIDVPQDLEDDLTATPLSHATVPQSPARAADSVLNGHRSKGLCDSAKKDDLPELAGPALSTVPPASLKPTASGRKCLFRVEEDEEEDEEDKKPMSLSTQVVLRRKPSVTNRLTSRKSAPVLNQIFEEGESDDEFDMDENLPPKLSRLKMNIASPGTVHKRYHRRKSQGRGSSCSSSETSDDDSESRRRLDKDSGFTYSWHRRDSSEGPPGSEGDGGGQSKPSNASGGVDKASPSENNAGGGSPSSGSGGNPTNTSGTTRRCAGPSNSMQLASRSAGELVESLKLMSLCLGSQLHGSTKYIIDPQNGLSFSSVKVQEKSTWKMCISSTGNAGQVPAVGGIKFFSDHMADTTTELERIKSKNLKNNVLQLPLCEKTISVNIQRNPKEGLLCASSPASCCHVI

## CN(C)CC#Cc1ccc2[nH]c3c(c2c1)-c1nc(N)ncc1CCC3
[1]
  % of control: 21%

## Nc1cnc(N2CCc3cc(S(=O)(=O)Nc4c(F)cc(Cl)cc4F)cc(N4CCCC4=O)c32)nc1 [TP-020n]
[2]
  % of control: 100%

## Cn1cc(-n2cnc3c(NCc4nc5cc(Cl)c(Cl)cc5[nH]4)nc(N4CCOCC4)nc32)cn1
[3]
  % of control: -8.31%

## Cc1cc(CN)cc(C)c1-c1ncn(C)c1-c1cncn1C
[4]
  dTagg: 0.2 K

## CC[C@@H]1[C@H](F)C(=O)N[C@@H]1COc1nccc2cc(C(N)=O)c(OC)cc12 [ZIMLOVISERTIB]
[5]
  % of inhibition: 3.6%
[6]
  % of inhibition: -3.5%
[7]
  % of inhibition: -16.5%

## CNC(=O)Nc1ccc(-c2nc(N3CC4CCC(C3)O4)c3cnn(C4CCC5(CC4)OCCO5)c3n2)cc1
[8]
  % of control: 100%
[9]
  % of inhibition: 12%

## COc1cc(Nc2nc(C)cc(-c3cnn4nc(OC)ccc34)n2)cc(C(F)(F)F)c1
[10]
  % of control: 98%

## C=CC(=O)Nc1cc(-n2c(=O)ccc3cnc4ccc(-c5ccc(NS(C)(=O)=O)cc5)cc4c32)ccc1C
[11]; at 1 µM
  % of control: 100%
[11]; at 10 µM
  % of control: 98%
[12]; at 1 µM
  % of control: 100%
[12]; at 10 µM
  % of control: 95%
[13]; at 1 µM
  % of control: 75%
[13]; at 10 µM
  % of control: 97%

## N#Cc1cccc(-c2c[nH]c3ncnc(N4CCOCC4)c23)c1
[14]
  % of control: 100%
